Measured values published in ChEMBL document CHEMBL4177526, “Discovery and structure activity relationship of the first potent cryptosporidium FIKK kinase inhibitor” (Bioorg Med Chem, 2017).

Legend:
[1] = target: Ephrin type-B receptor 2 (Homo sapiens) (UniProt P29323); experiment: Inhibition of human EPHB2 (560 to 987 residues) assessed as residual activity at 500 nM in presence of 33P-ATP by filter binding assay relative to control
[2] = target: MAP/microtubule affinity-regulating kinase 3 (Homo sapiens) (UniProt P27448); experiment: Inhibition of human MARK3 (2 to 729 residues) assessed as residual activity at 500 nM in presence of 33P-ATP by filter binding assay relative to control
[3] = target: Mitogen-activated protein kinase kinase kinase 11 (Homo sapiens) (UniProt Q16584); experiment: Inhibition of human MLK3 (96 to 386 residues) assessed as residual activity at 500 nM in presence of 33P-ATP by filter binding assay relative to control
[4] = target: Tyrosine-protein kinase CSK (Homo sapiens) (UniProt P41240); experiment: Inhibition of human CSK (1 to 450 residues) assessed as residual activity at 500 nM in presence of 33P-ATP by filter binding assay relative to control
Sequence of Tyrosine-protein kinase CSK (Homo sapiens) (P41240 2-450 limits assumed): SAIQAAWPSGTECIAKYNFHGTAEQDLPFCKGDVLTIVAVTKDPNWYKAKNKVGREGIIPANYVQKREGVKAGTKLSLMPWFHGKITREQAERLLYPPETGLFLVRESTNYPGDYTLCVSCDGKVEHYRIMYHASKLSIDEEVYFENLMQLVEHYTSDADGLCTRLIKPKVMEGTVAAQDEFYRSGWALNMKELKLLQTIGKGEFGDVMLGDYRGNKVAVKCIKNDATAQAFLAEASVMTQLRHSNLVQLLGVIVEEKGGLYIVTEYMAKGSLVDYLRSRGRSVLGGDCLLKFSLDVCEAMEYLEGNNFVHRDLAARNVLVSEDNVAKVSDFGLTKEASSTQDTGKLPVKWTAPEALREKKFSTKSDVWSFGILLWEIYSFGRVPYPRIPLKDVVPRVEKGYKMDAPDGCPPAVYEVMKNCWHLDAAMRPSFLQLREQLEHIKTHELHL

[5] = target: Mitogen-activated protein kinase 1 (Homo sapiens) (UniProt P28482); experiment: Inhibition of human ERK2 (2 to 360 residues) assessed as residual activity at 500 nM in presence of 33P-ATP by filter binding assay relative to control
[6] = target: Fibroblast growth factor receptor 1 (Homo sapiens) (UniProt P11362); experiment: Inhibition of human FGFR1 (400 to 820 residues) assessed as residual activity at 500 nM in presence of 33P-ATP by filter binding assay relative to control
[7] = target: Platelet-derived growth factor receptor alpha (Homo sapiens) (UniProt P16234); experiment: Inhibition of human PDGFRalpha (551 to […] residues) assessed as residual activity at 500 nM in presence of 33P-ATP by filter binding assay relative to control
[8] = target: Receptor-interacting serine/threonine-protein kinase 2 (Homo sapiens) (UniProt O43353); experiment: Inhibition of human RIPK2 (2 to 311 residues) assessed as residual activity at 500 nM in presence of 33P-ATP by filter binding assay relative to control
Sequence of Receptor-interacting serine/threonine-protein kinase 2 (Homo sapiens) (O43353 whole entry, the tested form may be a part): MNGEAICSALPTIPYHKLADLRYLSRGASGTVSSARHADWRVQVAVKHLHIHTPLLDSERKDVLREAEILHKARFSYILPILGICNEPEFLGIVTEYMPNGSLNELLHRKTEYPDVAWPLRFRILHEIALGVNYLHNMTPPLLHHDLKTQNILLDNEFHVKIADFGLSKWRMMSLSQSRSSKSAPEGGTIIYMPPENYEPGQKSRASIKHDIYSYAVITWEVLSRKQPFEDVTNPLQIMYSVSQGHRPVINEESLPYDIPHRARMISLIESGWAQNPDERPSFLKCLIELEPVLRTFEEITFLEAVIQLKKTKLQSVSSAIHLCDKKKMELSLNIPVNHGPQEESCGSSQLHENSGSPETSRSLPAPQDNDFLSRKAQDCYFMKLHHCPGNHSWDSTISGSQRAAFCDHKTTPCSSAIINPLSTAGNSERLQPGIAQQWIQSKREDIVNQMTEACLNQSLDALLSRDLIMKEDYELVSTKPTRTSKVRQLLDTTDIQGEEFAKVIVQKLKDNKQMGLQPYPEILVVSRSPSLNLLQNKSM

[9] = target: Serine/threonine-protein kinase pim-3 (Homo sapiens) (UniProt Q86V86); experiment: Inhibition of human PIM3 (2 to 326 residues) assessed as residual activity at 500 nM in presence of 33P-ATP by filter binding assay relative to control
[10] = target: AMPK alpha1/beta2/gamma1 (Homo sapiens) (UniProt O43741+P54619+Q13131); experiment: Inhibition of human AMPKalpha1 (11 to 559 residues)/beta2 (1 to 272 residues)/gamma1 (1 to 331 residues) assessed as residual activity at 500 nM in presence of 33P-ATP by filter binding assay relative to control; format: protein-complex assay
Sequence of AMPK alpha1/beta2/gamma1 (Homo sapiens) (O43741 whole entry, looked up, the tested form may be a part): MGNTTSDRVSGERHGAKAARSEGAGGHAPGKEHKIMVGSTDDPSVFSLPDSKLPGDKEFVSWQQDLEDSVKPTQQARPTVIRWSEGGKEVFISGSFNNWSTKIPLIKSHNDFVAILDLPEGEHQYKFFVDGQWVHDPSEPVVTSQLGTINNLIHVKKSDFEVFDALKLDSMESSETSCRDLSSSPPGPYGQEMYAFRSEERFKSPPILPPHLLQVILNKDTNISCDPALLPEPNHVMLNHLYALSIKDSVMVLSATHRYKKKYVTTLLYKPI
Sequence of AMPK alpha1/beta2/gamma1 (Homo sapiens) (P54619 whole entry, looked up, the tested form may be a part): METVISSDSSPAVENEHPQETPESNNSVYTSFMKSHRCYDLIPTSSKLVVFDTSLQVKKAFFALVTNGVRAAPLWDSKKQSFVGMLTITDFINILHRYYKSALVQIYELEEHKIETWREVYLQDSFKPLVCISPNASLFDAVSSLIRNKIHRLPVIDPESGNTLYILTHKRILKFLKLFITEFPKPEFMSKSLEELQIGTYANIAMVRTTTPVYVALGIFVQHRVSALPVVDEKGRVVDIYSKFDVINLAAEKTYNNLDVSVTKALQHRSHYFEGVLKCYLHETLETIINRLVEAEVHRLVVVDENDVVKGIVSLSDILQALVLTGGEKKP
Sequence of AMPK alpha1/beta2/gamma1 (Homo sapiens) (Q13131 whole entry, looked up, the tested form may be a part): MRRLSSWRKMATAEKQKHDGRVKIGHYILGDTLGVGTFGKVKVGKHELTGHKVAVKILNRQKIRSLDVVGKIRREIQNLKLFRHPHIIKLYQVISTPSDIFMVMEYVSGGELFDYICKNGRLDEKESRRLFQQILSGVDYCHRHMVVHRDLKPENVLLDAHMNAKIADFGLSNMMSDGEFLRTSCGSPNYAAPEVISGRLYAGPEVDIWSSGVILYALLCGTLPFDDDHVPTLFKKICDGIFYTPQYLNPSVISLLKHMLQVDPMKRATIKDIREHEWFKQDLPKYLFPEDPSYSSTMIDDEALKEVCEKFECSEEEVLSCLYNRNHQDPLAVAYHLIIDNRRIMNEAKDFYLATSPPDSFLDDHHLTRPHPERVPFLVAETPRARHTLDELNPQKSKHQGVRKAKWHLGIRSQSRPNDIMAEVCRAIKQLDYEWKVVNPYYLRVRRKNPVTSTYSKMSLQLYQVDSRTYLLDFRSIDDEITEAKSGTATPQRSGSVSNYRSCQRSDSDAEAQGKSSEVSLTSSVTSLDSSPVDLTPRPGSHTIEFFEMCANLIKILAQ

[11] = target: CDK2/Cyclin A2 (Homo sapiens) (UniProt P24941+P20248); experiment: Inhibition of human CDK2 (2 to 298 residues)/cyclinA2 (171 to 432 residues) assessed as residual activity at 500 nM in presence of 33P-ATP by filter binding assay relative to control; format: protein-complex assay
[12] = target: Eukaryotic elongation factor 2 kinase (Homo sapiens) (UniProt O00418); experiment: Inhibition of human EF2K (2 to 725 residues) assessed as residual activity at 500 nM in presence of 33P-ATP by filter binding assay relative to control
Sequence of Eukaryotic elongation factor 2 kinase (Homo sapiens) (O00418 whole entry, the tested form may be a part, canonical isoform): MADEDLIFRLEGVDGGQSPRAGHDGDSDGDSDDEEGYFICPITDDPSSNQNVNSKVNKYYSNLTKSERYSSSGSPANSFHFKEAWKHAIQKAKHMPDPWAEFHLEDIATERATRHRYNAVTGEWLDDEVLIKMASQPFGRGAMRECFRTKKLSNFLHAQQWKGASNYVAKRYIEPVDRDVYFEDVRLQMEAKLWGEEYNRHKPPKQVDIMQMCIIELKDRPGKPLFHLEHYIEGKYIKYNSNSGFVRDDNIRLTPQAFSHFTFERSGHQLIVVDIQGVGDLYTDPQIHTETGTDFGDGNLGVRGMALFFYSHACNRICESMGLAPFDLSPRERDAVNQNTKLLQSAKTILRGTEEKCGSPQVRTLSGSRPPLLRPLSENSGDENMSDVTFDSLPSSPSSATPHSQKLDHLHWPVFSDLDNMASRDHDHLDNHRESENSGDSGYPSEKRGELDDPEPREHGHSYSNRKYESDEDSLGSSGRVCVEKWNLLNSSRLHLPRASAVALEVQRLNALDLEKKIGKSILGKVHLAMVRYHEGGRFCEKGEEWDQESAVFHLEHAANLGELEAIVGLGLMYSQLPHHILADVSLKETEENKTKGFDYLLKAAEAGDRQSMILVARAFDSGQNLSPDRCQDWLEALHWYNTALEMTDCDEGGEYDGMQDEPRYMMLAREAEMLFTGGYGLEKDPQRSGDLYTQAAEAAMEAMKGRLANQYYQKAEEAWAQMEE

[13] = target: Casein kinase I isoform gamma-2 (Homo sapiens) (UniProt P78368); experiment: Inhibition of human CK1gamma2 (1 to 415 residues) assessed as residual activity at 500 nM in presence of 33P-ATP by filter binding assay relative to control
Sequence of Casein kinase I isoform gamma-2 (Homo sapiens) (P78368 whole entry, looked up, the tested form may be a part, canonical isoform): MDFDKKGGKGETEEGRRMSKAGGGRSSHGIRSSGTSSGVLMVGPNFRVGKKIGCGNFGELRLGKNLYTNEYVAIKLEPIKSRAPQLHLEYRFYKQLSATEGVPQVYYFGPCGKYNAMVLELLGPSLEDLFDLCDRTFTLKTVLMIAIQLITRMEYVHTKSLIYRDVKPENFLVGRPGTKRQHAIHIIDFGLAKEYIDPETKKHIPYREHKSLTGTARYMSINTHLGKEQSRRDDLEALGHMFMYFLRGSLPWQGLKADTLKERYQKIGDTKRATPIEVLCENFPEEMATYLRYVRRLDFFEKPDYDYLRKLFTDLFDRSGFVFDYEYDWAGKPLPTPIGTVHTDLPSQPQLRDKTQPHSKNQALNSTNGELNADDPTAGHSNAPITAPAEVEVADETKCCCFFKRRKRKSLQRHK

[14] = target: Dual specificity testis-specific protein kinase 1 (Homo sapiens) (UniProt Q15569); experiment: Inhibition of human TESK1 (1 to 345 residues) assessed as residual activity at 500 nM in presence of 33P-ATP by filter binding assay relative to control
Sequence of Dual specificity testis-specific protein kinase 1 (Homo sapiens) (Q15569 whole entry, looked up, the tested form may be a part): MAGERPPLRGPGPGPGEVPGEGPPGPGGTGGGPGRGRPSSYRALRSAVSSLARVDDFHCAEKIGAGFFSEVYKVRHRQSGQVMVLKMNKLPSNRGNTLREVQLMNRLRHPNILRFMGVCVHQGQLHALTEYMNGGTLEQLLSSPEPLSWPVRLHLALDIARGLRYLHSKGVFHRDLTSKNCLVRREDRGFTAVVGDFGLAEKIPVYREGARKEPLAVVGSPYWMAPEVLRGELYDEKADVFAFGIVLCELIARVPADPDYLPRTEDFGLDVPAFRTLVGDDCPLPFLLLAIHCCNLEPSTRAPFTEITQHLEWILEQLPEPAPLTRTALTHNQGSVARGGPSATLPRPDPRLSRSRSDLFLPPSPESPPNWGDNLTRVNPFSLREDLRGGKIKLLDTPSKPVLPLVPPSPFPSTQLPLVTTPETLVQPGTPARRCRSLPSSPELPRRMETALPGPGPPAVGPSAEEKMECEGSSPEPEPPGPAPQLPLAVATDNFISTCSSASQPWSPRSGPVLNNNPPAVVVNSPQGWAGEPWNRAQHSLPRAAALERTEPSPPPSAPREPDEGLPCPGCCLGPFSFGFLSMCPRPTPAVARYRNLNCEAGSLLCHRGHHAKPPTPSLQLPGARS

[15] = target: Tyrosine-protein kinase Yes (Homo sapiens) (UniProt P07947); experiment: Inhibition of human YES1 (1 to 543 residues) assessed as residual activity at 500 nM in presence of 33P-ATP by filter binding assay relative to control
Sequence of Tyrosine-protein kinase Yes (Homo sapiens) (P07947 2-543 limits assumed): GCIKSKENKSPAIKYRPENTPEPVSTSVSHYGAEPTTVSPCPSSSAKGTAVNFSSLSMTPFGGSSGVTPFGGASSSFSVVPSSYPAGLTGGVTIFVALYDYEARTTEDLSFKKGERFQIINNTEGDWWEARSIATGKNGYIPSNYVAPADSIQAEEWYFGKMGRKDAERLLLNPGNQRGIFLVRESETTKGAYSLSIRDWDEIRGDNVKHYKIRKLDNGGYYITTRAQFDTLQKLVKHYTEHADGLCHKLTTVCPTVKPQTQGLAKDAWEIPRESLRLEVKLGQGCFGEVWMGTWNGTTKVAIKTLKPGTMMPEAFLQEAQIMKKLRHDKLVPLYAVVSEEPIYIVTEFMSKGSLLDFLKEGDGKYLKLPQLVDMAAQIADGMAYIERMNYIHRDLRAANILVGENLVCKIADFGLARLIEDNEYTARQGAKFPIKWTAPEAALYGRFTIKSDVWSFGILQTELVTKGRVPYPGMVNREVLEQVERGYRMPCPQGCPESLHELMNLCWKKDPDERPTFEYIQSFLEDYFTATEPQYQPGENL

[16] = target: Serine/threonine-protein kinase Nek2 (Homo sapiens) (UniProt P51955); experiment: Inhibition of human NEK2A (1 to 445 residues) assessed as residual activity at 500 nM in presence of 33P-ATP by filter binding assay relative to control
[17] = Efflux ratio of permeability in human Caco2 cells; format: ADME, cell-based; conditions: Caco-2
[18] = target: Aurora kinase B (Homo sapiens) (UniProt Q96GD4); experiment: Inhibition of human Aurora B (1 to 344 residues) assessed as residual activity at 500 nM in presence of 33P-ATP by filter binding assay relative to control
[19] = target: MAP/microtubule affinity-regulating kinase 4 (Homo sapiens) (UniProt Q96L34); experiment: Inhibition of human MARK4 (2 to 752 residues) assessed as residual activity at 500 nM in presence of 33P-ATP by filter binding assay relative to control
[20] = target: Interleukin-1 receptor-associated kinase 4 (Homo sapiens) (UniProt Q9NWZ3); experiment: Inhibition of human IRAK4 (14 to 460 residues) assessed as residual activity at 500 nM in presence of 33P-ATP by filter binding assay relative to control
[21] = target: Receptor tyrosine-protein kinase erbB-4 (Homo sapiens) (UniProt Q15303); experiment: Inhibition of human HER4 (706 to 991 residues) assessed as residual activity at 500 nM in presence of 33P-ATP by filter binding assay relative to control
[22] = target: Vascular endothelial growth factor receptor 2 (Homo sapiens) (UniProt P35968); experiment: Inhibition of VEGFR2 (unknown origin) assessed as residual activity at 500 nM relative to control
[23] = target: Dual specificity protein kinase TTK (Homo sapiens) (UniProt P33981); experiment: Inhibition of human TTK (1 to 857 residues) assessed as residual activity at 500 nM in presence of 33P-ATP by filter binding assay relative to control
[24] = target: Discoidin domain-containing receptor 2 (Homo sapiens) (UniProt Q16832); experiment: Inhibition of human DDR2 (467 to 854 residues) assessed as residual activity at 500 nM in presence of 33P-ATP by filter binding assay relative to control
[25] = target: Dual specificity tyrosine-phosphorylation-regulated kinase 1A (Homo sapiens) (UniProt Q13627); experiment: Inhibition of human DYRK1A (1 to 502 residues) assessed as residual activity at 500 nM in presence of 33P-ATP by filter binding assay relative to control
[26] = target: Serine/threonine-protein kinase N2 (Homo sapiens) (UniProt Q16513); experiment: Inhibition of human PRK2 (501 to 984 residues) assessed as residual activity at 500 nM in presence of 33P-ATP by filter binding assay relative to control

Cc1cccc(-c2nc(N)sc2-c2ccc3ncccc3n2)c1
Activity [1]: 95%
Activity [2]: 121%
Activity [3]: 101%
Activity [4]: 99%
Activity [5]: 80%
Activity [6]: 85%
Activity [7]: 99%
Activity [8]: 30%
Activity [9]: 91%
Activity [10]: 120%
Activity [11]: 104%
Activity [12]: 115%
Activity [13]: 113%
Activity [14]: 87%
Activity [15]: 53%
Activity [16]: 102%
efflux ratio [17]: < 1
Activity [18]: 89%
Activity [19]: 116%
Activity [20]: 110%
Activity [21]: 60%
Activity [22]: 41%
Activity [23]: 117%
Activity [24]: 91%
Activity [25]: 132%
Activity [26]: 121%
